What was measured:
[1] = test system: Lewis lung carcinoma; assay: Antitumor effect on experimental tumors in mice, Lewis lung carcinoma (solid), tumor inhibitory ratio; assay type: in vivo, BDF1 male mice; conditions: 100 mg/kg, i.p., schedule 5q2d (day 1, 3, 5, 7 and 9), tumors weighed at day 13
Procedure: The antitumor activities of the compounds of the present invention were estimated according to the methods described in "Cancer chemotherapy reports" Part 3, Vol. 3, (No. 2) p. 13 (1972).
For determining antitumor activities, BDF1 male mice, 5 weeks old, weighing between 18 and 22 grams were used. Each test group was composed of 6 to 7 mice. Two million cells of Lewis Lung Carcinoma were injected in the hind leg. The drug was administered intraperitoneally at day 1, 3, 5, 7 and 9 (or 5q2d).
After killing the mice at day 13, tumors were removed and weighed. The tumor inhibitory ratio was calculated according to the following formula. [formula]

[2] = Acute toxicities (LD50); conditions: mouse, in vivo, ip; ICR male mice, 5 weeks old, intraperitoneal
Procedure: For determining acute toxicities ICR male mice, 5 weeks old, were used. The drug was administered intraperitoneally.

[3] = test system: tumors; conditions: Japanese Patent Publication (Kokai) No. 53-5162; cited from earlier work
[4] = Japanese Patent Publication (Kokai) No. 53-5162; cited from earlier work

Row | SMILES | Inhibition Ratio, Lewis lung carcinoma (solid) [1] [%] | LD50 [2] [mg/kg] | antitumor activity, known (in words) [3] | immunosuppressive activity, known (in words) [4]
1 | CC12CC3(C)CC(C)(C1)CC(C(=O)Oc1nc[nH]c1C(N)=O)(C2)C3 [5-carbamoyl-1H-imidazole-4-yl 3',5',7'-trimethyladamantane-1'-carboxylate] | 90 | 670 to 1000 |  | 
2 | NC(=O)c1[nH]cnc1OC(=O)C12CC3CC(CC(Br)(C3)C1)C2 [5-carbamoyl-1H-imidazole-4-yl 3'-bromoadamantane-1'-carboxylate] | 66.2 | 670 to 1000 |  | 
3 | NC(=O)c1[nH]cnc1OC(=O)C12CC3CC(CC(Cl)(C3)C1)C2 [5-carbamoyl-1H-imidazole-4-yl 3'-chloroadamantane-1'-carboxylate] | 71.1 | > 1000 |  | 
4 | NC(=O)c1[nH]cnc1OC(=O)C12CC3CC(CC(F)(C3)C1)C2 [5-carbamoyl-1H-imidazole-4-yl 3'-fluoroadamantane-1'-carboxylate] | 65 | 670 to 1000 |  | 
5 | NC(=O)c1[nH]cnc1OC(=O)C12CC3CC(C1)CC(c1ccccc1)(C3)C2 [5-carbamoyl-1H-imidazole-4-yl 3'-phenyladamantane-1'-carboxylate] | 85.7 |  |  | 
6 | NC(=O)c1[nH]cnc1OC(=O)C12CC3CC(CC(C3)C1)C2 [Compound (IV), 5-Carbamoyl-1H-imidazole-4-yl adamantane-1'-carboxylate] |  | 250 to 297 | antitumor and immunosuppressive activity | immunosuppressive activity

Reference: patent US4332806A, “Antitumor and immunosuppresive 4-carbamoyl imidazolium-5-olate derivatives, pharmaceutical composition and production thereof” (Sumitomo Chemical Company, Limited, priority 1979, dated 1982)
